Earlier results in patent US20160120870A1, “THE PROCESS FOR THE PREPARATION OF A PHARMACEUTICAL COMPOSITION COMPRISING RIVAROXABAN” (SANDOZ AG, priority 2013, published 2016).

Conditions: background prior art, drug substance

- water solubility: relatively poor
Compound: O=C(NC[C@H]1CN(c2ccc(N3CCOCC3=O)cc2)C(=O)O1)c1ccc(Cl)s1 [Rivaroxaban, (S)-5-chloro-N-{[2-oxo-3-[4-(3-oxomorpholin-4-yl)phenyl]oxazolidin-5-yl]methyl}thiophene-2-carboxamide]
